Experiments:
Format in all cases: binding
[1] = target: T1, SnRK2.6 (Arabidopsis thaliana, UniProt Q940H6); experiment: thermal shift (SYPRO Orange); settings: 50 µM compound, 5 µM kinase
T1 construct: gene SRK2E; full length, recombinant from E. coli; untagged in TSA, H6GST fusion in kinase assay
T1 sequence (Q940H6 1-362): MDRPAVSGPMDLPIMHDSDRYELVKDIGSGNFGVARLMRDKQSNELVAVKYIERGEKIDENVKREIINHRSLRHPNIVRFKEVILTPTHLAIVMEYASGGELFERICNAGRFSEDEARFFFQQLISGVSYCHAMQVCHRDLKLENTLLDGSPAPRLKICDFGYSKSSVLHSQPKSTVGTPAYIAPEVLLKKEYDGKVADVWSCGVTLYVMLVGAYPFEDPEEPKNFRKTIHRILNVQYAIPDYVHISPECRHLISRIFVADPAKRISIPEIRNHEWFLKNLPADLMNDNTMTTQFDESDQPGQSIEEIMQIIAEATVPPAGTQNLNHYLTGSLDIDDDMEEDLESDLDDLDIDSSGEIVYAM

[2] = target: T2, SnRK2.3 (Arabidopsis thaliana, UniProt Q39193); experiment: thermal shift (SYPRO Orange); settings: 50 µM compound, 5 µM kinase
T2 construct: gene SRK2I; full length, recombinant from E. coli; untagged and as N-terminal MBP fusion (NAAAEF linker)
T2 sequence (Q39193 1-361): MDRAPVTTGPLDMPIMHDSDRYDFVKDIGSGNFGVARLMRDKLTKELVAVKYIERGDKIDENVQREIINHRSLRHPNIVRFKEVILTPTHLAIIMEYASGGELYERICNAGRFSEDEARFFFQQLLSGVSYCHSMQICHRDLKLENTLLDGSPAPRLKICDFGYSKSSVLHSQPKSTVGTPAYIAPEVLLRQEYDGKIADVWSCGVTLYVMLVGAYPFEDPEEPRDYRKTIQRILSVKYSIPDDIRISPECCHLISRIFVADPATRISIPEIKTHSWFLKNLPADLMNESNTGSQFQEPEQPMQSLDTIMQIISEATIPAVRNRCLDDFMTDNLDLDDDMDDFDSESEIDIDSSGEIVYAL

[3] = target: T3, SnRK2.2 (Arabidopsis thaliana, UniProt Q39192); experiment: thermal shift (SYPRO Orange); settings: 50 µM compound
T3 construct: gene SRK2D
T3 sequence (Q39192 1-362): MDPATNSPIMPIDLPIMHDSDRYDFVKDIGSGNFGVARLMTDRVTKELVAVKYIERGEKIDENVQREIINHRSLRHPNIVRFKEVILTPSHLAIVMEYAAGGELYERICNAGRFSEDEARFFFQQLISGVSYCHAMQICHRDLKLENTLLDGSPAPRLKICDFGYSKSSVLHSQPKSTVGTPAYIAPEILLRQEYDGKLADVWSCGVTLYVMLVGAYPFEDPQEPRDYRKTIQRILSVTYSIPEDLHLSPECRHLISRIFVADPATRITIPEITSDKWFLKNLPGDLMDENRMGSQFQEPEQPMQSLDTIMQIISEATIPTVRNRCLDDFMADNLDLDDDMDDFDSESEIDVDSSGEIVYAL

[4] = target: T4, PYL1/HAB1 coreceptor complex (Arabidopsis thaliana, UniProt Q8VZS8); experiment: radioligand competition (SPA, 3H-ABA); settings: 450 nM 3H-ABA, 10 µM HAB1, MOPS pH 7.4, room temperature; curve only in figure
T4 construct: H6GST-PYL1 on SPA beads plus HAB1 (172-511), both from E. coli; 1:1 complex; with Protein phosphatase 2C 16
T4 sequence (Q8VZS8 36-211): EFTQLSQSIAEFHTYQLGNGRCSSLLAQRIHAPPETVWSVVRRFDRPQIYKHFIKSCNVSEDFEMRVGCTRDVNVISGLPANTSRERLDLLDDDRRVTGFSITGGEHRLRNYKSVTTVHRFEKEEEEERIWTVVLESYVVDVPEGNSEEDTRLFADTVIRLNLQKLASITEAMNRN
T4 sequence (Q9CAJ0 172-511 partner): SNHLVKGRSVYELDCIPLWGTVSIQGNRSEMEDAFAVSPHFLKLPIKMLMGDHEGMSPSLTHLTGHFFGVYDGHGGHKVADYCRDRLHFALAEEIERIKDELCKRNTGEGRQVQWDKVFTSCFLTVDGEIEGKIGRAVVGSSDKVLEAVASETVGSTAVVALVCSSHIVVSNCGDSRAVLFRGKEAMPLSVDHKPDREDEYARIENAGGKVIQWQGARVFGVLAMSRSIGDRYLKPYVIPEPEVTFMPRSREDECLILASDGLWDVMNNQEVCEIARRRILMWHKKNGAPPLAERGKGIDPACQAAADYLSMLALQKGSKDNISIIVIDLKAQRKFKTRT

[5] = target: T5, PYL2 (Arabidopsis thaliana, UniProt O80992); experiment: thermal shift (SYPRO Orange); settings: 500 µM pyrabactin, no PP2C; apo Tm not derivable
T5 construct: residues 14-188, recombinant from E. coli, receptor alone without PP2C; dimeric
T5 sequence (O80992 14-188): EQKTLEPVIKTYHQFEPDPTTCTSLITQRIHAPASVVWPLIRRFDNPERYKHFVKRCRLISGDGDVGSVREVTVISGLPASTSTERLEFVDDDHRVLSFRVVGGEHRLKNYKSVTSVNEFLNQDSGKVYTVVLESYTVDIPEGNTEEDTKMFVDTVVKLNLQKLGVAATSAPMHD

Row | dTm [1] [°C] | dTm [2] [°C] | dTm [3] [°C] | SMILES | radioligand competition (SPA, 3H-ABA) [4] | thermal shift (SYPRO Orange) [5]
1 | > 3 | > 3 | > 3 | O=C1NC(=O)c2c1c(-c1ccccc1Cl)cc1[nH]c3ccc(O)cc3c21 [Wee1 inhibitor] | – | –
2 | – | – | – | O=S(=O)(NCc1ccccn1)c1ccc(Br)c2ccccc12 [pyrabactin] | Competition of the interactions between ^3H-ABA and the PYL1/HAB1 (A) | suggesting that pyrabactin directly binds PYL2, but with an affinity that is lower

Source: article PMC3480437, “Abscisic Acid Signaling: Thermal Stability Shift Assays as Tool to Analyze Hormone Perception and Signal Transduction” (PLoS ONE, 2012)
